From the supplement of paper PMC10307832

Columns and labels:
Experiment in all cases: relative viability (nuclei count vs DMSO), 5 days (fraction); higher = more cells survive
[1] = compound: CN1CCN(CC1)C2=CC(=C(C=C2)NC3=NC(=C(S3)C(=O)C4=C(C=CC=C4Cl)Cl)N)OC [XMD14-99] + Cc1nc(Nc2ncc(C(=O)Nc3c(C)cccc3Cl)s2)cc(N2CCN(CCO)CC2)n1 [Dasatinib] (partner 0.075 µM)
Method in brief: (§1)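 Lung cancer cell lines, seeded in 1536-well plates, were treated the following day by pin tool with a single drug or with five library-drug doses (not always all listed) in √10 steps on top of a fixed anchor-drug dose. Cells were fixed and nuclei stained in one step after 5 days, and nuclei were counted. Relative viability is the nuclei count for treated wells divided by that for vehicle wells, reported as medians of duplicate plates.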

[2] = compound: N[C@@H]1CCCN(c2c(/C=C3\SC(=O)NC3=O)cccc2-c2ccccc2)C1 [AZD1208] + CC(=O)Nc1cccc(-n2c(=O)n(C3CC3)c(=O)c3c(Nc4ccc(I)cc4F)n(C)c(=O)c(C)c32)c1 [Trametinib] (partner 0.02 µM)
Method in brief: as §1

[3] = compound: N[C@@H]1CCCN(c2c(/C=C3\SC(=O)NC3=O)cccc2-c2ccccc2)C1 [AZD1208] + COc1cc2c(Oc3ccc(NC(=O)C4(C(=O)Nc5ccc(F)cc5)CC4)cc3F)ccnc2cc1OCCCN1CCOCC1 [Foretinib] (partner 0.25 µM)
Method in brief: as §1

[4] = compound: N[C@@H]1CCCN(c2c(/C=C3\SC(=O)NC3=O)cccc2-c2ccccc2)C1 [AZD1208] + CS(=O)(=O)N1CCN(Cc2cc3nc(-c4cccc5[nH]ncc45)nc(N4CCOCC4)c3s2)CC1 [Pictilisib] (partner 1 µM)
Method in brief: as §1

Row | Cell Line | relative viability ([1]; first compound 0.08 µM) | relative viability ([1]; first compound 0.8 µM) | relative viability ([1]; first compound 2.53 µM) | relative viability ([1]; first compound 8 µM) | relative viability ([2]; first compound 0.08 µM) | relative viability ([2]; first compound 0.253 µM) | relative viability ([2]; first compound 0.8 µM) | relative viability ([2]; first compound 2.53 µM) | relative viability ([2]; first compound 8 µM) | relative viability ([3]; first compound 0.08 µM) | relative viability ([3]; first compound 0.253 µM) | relative viability ([3]; first compound 0.8 µM) | relative viability ([3]; first compound 2.53 µM) | relative viability ([3]; first compound 8 µM) | relative viability ([4]; first compound 0.08 µM) | relative viability ([4]; first compound 0.253 µM) | relative viability ([4]; first compound 0.8 µM) | relative viability ([4]; first compound 2.53 µM) | relative viability ([4]; first compound 8 µM)
1 | NCI-H1437 | 0.437 | 0.457 | 0.35 | 0.234 | 0.423 | 0.597 | 0.358 | 0.419 | 0.408 | 1.31 | 1.17 | 1.36 | 1.42 | 1.42 | 0.369 | 0.388 | 0.271 | 0.246 | 0.247
2 | COR-L23 | 0.556 | 0.452 | 0.337 | 0.183 | 0.511 | 0.581 | 0.525 | 0.57 | 0.301 | 0.961 | 1.05 | 0.966 | 0.94 | 0.97 | 0.738 | 0.87 | 0.725 | 0.693 | 0.75
3 | ABC-1 | 0.555 | 0.689 | 0.483 | 0.46 | – | – | – | – | – | 1.16 | 1.02 | 1.13 | 0.92 | 0.967 | 0.526 | 0.665 | 0.565 | 0.623 | 0.627
4 | SW 900 | 0.662 | 0.784 | 0.702 | 0.426 | 0.721 | 0.941 | 0.697 | 0.641 | 0.708 | 0.817 | 0.807 | 0.691 | 0.947 | 0.923 | – | – | – | – | –
5 | PC-14 | 0.254 | 0.226 | 0.224 | 0.11 | 0.681 | 0.704 | 0.512 | 0.662 | 0.524 | 1.02 | 1.06 | 1.06 | 1.04 | 0.999 | 0.617 | 0.743 | 0.436 | 0.584 | 0.482
6 | NCI-H1648 | – | – | – | – | 0.588 | 0.441 | 0.435 | 0.402 | 0.497 | – | – | – | – | – | – | – | – | – | –
7 | A549 | – | – | – | – | – | – | – | – | – | 0.808 | 1.05 | 0.824 | 0.927 | 0.708 | 0.409 | 0.423 | 0.303 | 0.283 | 0.358
8 | A-427 | 0.624 | 0.651 | 0.545 | 0.479 | 0.622 | 0.71 | 0.6 | 0.619 | 0.537 | 0.924 | 1.01 | 0.905 | 0.865 | 0.813 | 0.673 | 0.664 | 0.597 | 0.74 | 0.533
9 | NCI-H1792 | 0.73 | 0.71 | 0.631 | 0.503 | 0.424 | 0.368 | – | 0.312 | 0.306 | – | – | – | – | – | 0.255 | 0.272 | 0.258 | 0.218 | 0.199
10 | LCLC-97TM1 | 0.837 | 0.766 | 0.73 | 0.559 | 0.21 | 0.172 | 0.137 | 0.183 | 0.162 | 0.914 | 0.945 | 1.03 | 0.891 | 0.8 | 0.164 | 0.175 | – | 0.121 | 0.145
11 | NCI-H1703 | – | – | – | – | – | – | – | – | – | 0.268 | 0.333 | 0.275 | 0.301 | 0.335 | 0.225 | 0.242 | 0.238 | 0.214 | 0.198
12 | LCLC-103H | 0.383 | 0.582 | 0.472 | 0.442 | 0.63 | 0.651 | 0.683 | 0.686 | 0.681 | 0.771 | 0.665 | 0.56 | 0.558 | 0.485 | 0.568 | 0.614 | 0.485 | 0.455 | 0.448
13 | RERF-LC-KJ | 0.883 | 0.869 | 0.764 | 0.608 | 0.903 | 0.844 | 0.727 | 0.776 | 0.548 | 0.865 | 0.859 | 0.682 | 0.7 | 0.546 | 0.434 | 0.526 | 0.464 | 0.438 | 0.368
14 | BEN | 0.29 | 0.36 | 0.25 | 0.244 | 0.843 | 0.754 | 0.636 | 0.768 | 0.576 | 0.609 | 0.602 | 0.47 | 0.571 | 0.459 | 0.525 | 0.447 | 0.414 | 0.387 | 0.373
15 | NCI-H1666 | 0.826 | 0.803 | 0.743 | 0.59 | 0.764 | 0.907 | 0.687 | 0.667 | 0.725 | 0.906 | 1 | 0.953 | 0.954 | 0.975 | 0.359 | 0.553 | 0.353 | 0.309 | 0.374
16 | LC-2-ad | 0.541 | 0.643 | 0.535 | 0.476 | 0.92 | 0.917 | 0.664 | 0.933 | 0.935 | 0.903 | 0.924 | 0.871 | 0.85 | 0.912 | 0.397 | 0.446 | 0.405 | 0.357 | 0.417
17 | Calu-6 | – | – | – | – | – | – | – | – | – | 0.861 | 0.938 | 0.946 | 0.867 | 0.747 | 0.784 | 1 | 0.851 | 0.829 | 0.739
18 | NCI-H2342 | 0.29 | 0.292 | 0.354 | 0.285 | 0.803 | 0.806 | 0.781 | 0.678 | 0.637 | 0.922 | 0.946 | 0.934 | 1.02 | 0.801 | – | – | – | – | –
19 | EBC-1 | – | – | – | – | – | – | – | – | – | 0.0932 | 0.0985 | 0.0803 | 0.0927 | 0.103 | 0.2 | 0.275 | 0.265 | 0.271 | 0.274
20 | NCI-H1299 | – | – | – | – | – | – | – | – | – | 1.11 | 1.08 | 1.08 | 1.14 | 1.07 | 0.731 | 0.725 | 0.818 | 0.653 | 0.562
21 | NCI-H522 | 0.821 | 0.93 | 0.83 | 0.805 | 0.686 | 0.663 | 0.55 | 0.635 | 0.677 | – | – | – | – | – | – | – | – | – | –
22 | IA-LM | – | – | – | – | – | – | – | – | – | 1.07 | 1.09 | 0.924 | 1.14 | 1.05 | 0.256 | 0.326 | 0.292 | 0.231 | 0.308
